Measurements published in article PMC5670154, “Anti-tumor and Anti-angiogenic Ergosterols from Ganoderma lucidum” (Frontiers in Chemistry, 2017).
Like-named read-outs stand apart in the source and are kept apart here.

Tests used:
[1] = test system: human hepatocellular carcinoma cells HepG2; assay: MTT anti-proliferative assay, HepG2; assay type: cell-based; conditions: for Experimental pIC50: HepG2
Method: (§1) Human breast carcinoma cells MDA-MB-231, human hepatocellular carcinoma cells HepG2, and human lung carcinoma cells A549, were purchased from ATCC, or were gifted by Professor Burton B. Yang from University of Toronto, Canada. The anti-proliferative effect of total extract (GL), fractions (GL1–GL4), and compounds 1–14 on tumor cell lines was evaluated by MTT assay (Franchi et al., [2012]). Total extract (GL) and fractions (GL1–GL4) were evaluated for their anti-proliferative effect on three types of carcinoma cells (MDA-MB-231, HepG2, and A549). Compounds 1–14 were chosen to evaluate for their anti-proliferative effect against MDA-MB-231 and HepG2 cells. Hundred microliters of cells suspension (5 × 10^4 cells/mL) was seeded into wells of a 96-well plate. After being incubated for 4 h, different concentrations of fractions/compounds were added onto the cells and incubated. After 48 h, 150 μL of 3-[4,5-dimethylthiazol-2-yl]-2,5-diphenyl tetrazolium bromide (MTT) solution (Sigma) was added to each well, and cells were kept being incubated for 4 h. After removing the MTT/medium, DMSO (100 μL) of was added to each well and was agitated at 60 rpm for 5 min. The optical density of the assay 96-well plate was read (λ = 540 nm) on a microplate reader.
(§2) IC50-values were calculated and analyzed using SPSS with three replications, each carried out in triplicate. Data were expressed as mean ± SD and analyzed by one-way ANOVA followed by two-tailed Student's t-test. A difference was considered significant at the P < 0.05 or P < 0.01 level.

[2] = test system: Human breast carcinoma cells MDA-MB-231; assay: MTT anti-proliferative assay, MDA-MB-231; assay type: cell-based; conditions: mean ± SD
Method: as §1, §2

[3] = test system: HUVECs; assay: Anti-angiogenesis activity, MTT assay on HUVECs; assay type: cell-based, human; conditions: for EC50: MTT, 48 h, mean ± SD; for selective inhibition, tumor cells versus HUVECs: comparison of MDA-MB-231/HepG2 and HUVEC values
Method: HUVECs (KeyGEN BioTECH Co., Ltd, Jiangsu, China) were cultured in ECM (endothelial cell medium) with 5% (v/v) FBS, 1% (v/v) ECGS, and 1% penicillin-streptomycin (w/v) at 37°C in a cell incubator. The MTT assay was employed to assess the anti-angiogenic effect of the isolated compounds against HUVECs as described previously with mild modification (Liang et al., [2015]; Nguyen et al., [2015]). Briefly, HUVECs were seeded into a 96-well plate and incubated. Different concentrations of compounds 1–14 were added onto the cells after 4 h, and continued to be co-incubated for 48 h. Next, the cells were co-incubated with MTT (Sigma, St. Louis, MO, USA) to a final concentration of 0.05% for another 4 h. Then, replacing the MTT solution with […] DMSO, and kept the plates being shaken for 3 min. The optical density of each well was measured on a microplate reader at λ = 570 nm.
as §2

[4] = test system: mouse embryonic fibroblasts (NIH/3T3); assay: Cytotoxicity on normal cells NIH/3T3; assay type: cell-based
Method: Anti-proliferative activity evaluation against two types of human cancer cells (MDA-MB-231 and HepG2), HUVECs and mouse embryonic fibroblasts (NIH/3T3, used as normal cells) were then carried out.

[5] = Homo sapiens, HepG2, 48 h, MTT, 48 h, mean ± SD, read-out: IC50 HepG2
[6] = Homo sapiens, HepG2, HepG2, converted from observed IC50s (μM), read-out: Experimental pIC50 (converted)
[7] = Mus musculus, NIH3T3, mean ± SD
[8] = MTT, 48 h, mean ± SD, read-out: IC50 HepG2
[9] = converted from observed IC50s (μM)

Molecule	IC50 [1, 5] [µM]	IC50 [1, 6] [µM]	IC50 ([2]; Homo sapiens, MDA-MB-231, 48 h) [µM]	EC50 ([3]; Homo sapiens, HUVEC) [µM]	EC50 [4, 7] [µM]	IC50 [1, 8] [µM]	IC50 ([2]; 48 h) [µM]	selective inhibition, tumor cells versus HUVECs [3]	increase of activity compared with compound 2 ([1]; HepG2 IC50)	Experimental pIC50 [1, 9]	decline of activity in comparison with compound 2 ([1]; HepG2 IC50)	EC50 ([3]; read-out: EC50 HUVEC) [µM]	EC50 ([4]; mean ± SD) [µM]
CO[C@@H]1C=C2[C@@H]3CC[C@H]([C@H](C)/C=C/[C@H](C)C(C)C)[C@@]3(C)CC[C@@H]2[C@@]2(C)CC[C@H](O)[C@H]3O[C@@]312 [Compound 1, (22E)-4α, 5α-epoxy-6β-methoxyergosta-7, 22-diene-3β-ol]	138 ± 8.3	138	176 ± 5.1	144 ± 6.1	422 ± 9.3								
CC(C)[C@@H](C)/C=C/[C@@H](C)[C@H]1CC[C@H]2C3=C[C@@H](O)[C@@]4(O)C[C@@H](O)CC[C@]4(C)C3=CC[C@]12C [Compound 2, (3β, 5α, 6β, 22E)-ergosta-7, 9 (11), 22-triene-3,5,6-triol]	< 100	62.5	< 100	142 ± 3.6	303 ± 11.9	62.5 ± 1.3	56.3 ± 1.5	significant selective inhibition against cancer cells					
CC(C)[C@@H](C)/C=C/[C@@H](C)[C@H]1CC[C@H]2C3=C[C@@H](O)[C@@]4(O)C[C@@H](O)CC[C@]4(C)[C@H]3CC[C@]12C [Compound 4, (3β, 5α, 6β, 22E)-ergosta-7, 22-diene-3,5,6-triol]	175 ± 15.9	175	149 ± 8.7	345 ± 13.7	> 500								
CC(C)[C@@H](C)/C=C/[C@@H](C)[C@H]1CC[C@H]2C3=C[C@H](O)[C@@]4(O)C[C@@H](O)CC[C@]4(C)[C@H]3CC[C@]12C [Compound 5, (3β, 5α, 6α, 22E)-ergosta-7, 22-diene-3,5,6-triol]	197 ± 20.1	197	114 ± 9.9	206 ± 12.2	> 500								
CC(C)[C@@H](C)/C=C/[C@@H](C)[C@H]1CC[C@H]2C3=C[C@H](O)[C@@]4(O)C[C@@H](O)CC[C@]4(C)[C@@]3(O)CC[C@]12C [Compound 6, (3β, 5α, 6α, 9α, 22E)-ergosta-7, 22-diene-3,5,6,9-tetrol]	185 ± 9.5	185	224 ± 10	384 ± 10.9	> 500								
CC(C)[C@@H](C)/C=C/[C@@H](C)[C@H]1CC[C@H]2C3=C(CC[C@]12C)[C@@]1(C)CC[C@H](O)C[C@@]12O[C@H]2[C@H]3O [Compound 9, (3β, 5α, 6α, 7α, 22E)-5,6-epoxy-ergosta-8, 22-diene-3,7-diol]	22.1 ± 0.9	22.1	20.3 ± 2.2	27.9 ± 1.7	183 ± 10.3				approximately 3 folds				
CC(C)[C@@H](C)/C=C/[C@@H](C)[C@H]1CCC2=C3[C@H](O)[C@@H]4O[C@@]45C[C@@H](O)CC[C@]5(C)[C@H]3CC[C@@]21C [Compound 10, (3β, 5α, 6α, 7α, 22E)-5,6-epoxy-ergosta-8 (14), 22-diene-3,7-diol]	50.6 ± 5.3	50.6	46.7 ± 5.4	48.7 ± 2.9	194 ± 9.6								
CC(C)[C@@H](C)/C=C/[C@@H](C)[C@H]1CC[C@@H]2[C@]1(C)CC[C@H]1[C@]23C=C[C@]2(C[C@@H](O)CC[C@]12C)OO3 [Compound 11, (3β, 5α, 8α, 22E)-5,8-epidioxy-ergosta-6, 22-dien-3-ol]	34.8 ± 2.6	34.8	44.6 ± 1.9	29.1 ± 3.2	197 ± 11.3								
CC(C)[C@@H](C)/C=C/[C@@H](C)[C@H]1CC[C@H]2C3=CC=C4C[C@@H](O)CC[C@]4(C)[C@H]3CC[C@]12C [Compound 12, (3β, 22E)-ergosta-5,7, 22-trien-3-ol]	75.6 ± 4.7		69.7 ± 5.8	72.4 ± 5.6	261 ± 12								
CC(C)[C@@H](C)/C=C/[C@@H](C)[C@H]1CC[C@@H]2[C@]1(C)CC=C1[C@]23C=C[C@]2(C[C@@H](O)CC[C@]12C)OO3 [Compound 13, (3β, 5α, 8α, 22E)-5,8-epidioxy-ergosta-6, 9 (11), 22-trien-3-ol]	44.5 ± 1.3	44.5	32.1 ± 3	51.6 ± 2.8	293 ± 17.2								
CC(C)[C@@H](C)/C=C/[C@@H](C)[C@H]1CC[C@@]2(O)C3=C(CC[C@]12C)[C@@]1(C)CC[C@H](O)C[C@@]12O[C@H]2C3=O [Compound 14, (3β, 5α, 6α, 14α, 22E)-3, 14-dihydroxy-5,6-epoxy-ergosta-8, 22-dien-7-one]	201 ± 6.4		189 ± 8.1	321 ± 18.9	> 500								
O=c1c(O)c(-c2ccc(O)cc2)oc2cc(O)cc(O)c12 [kaempferol, reference compound]	45.4 ± 3.4	45.4	56.6 ± 3.1	35.5 ± 4.1	356 ± 15.9								
(3β, 5α, 6β, 9α, 14α, 22E)-ergosta-7, 22-diene-3, 5, 6, 9, 14-pentol [Compound 8]						286 ± 18.9	216 ± 14.3			3.543	approximately 4.6 folds	357 ± 19.5	> 500
(3β, 5α, 6β, 9α, 22E)-ergosta-7, 22-diene-3, 5, 6, 9-tetrol [Compound 3]						130 ± 3.4	148 ± 5.8	selective inhibition against HUVECs		3.887		84 ± 6.7	365 ± 15.7
(3β, 5α, 6β, 14α, 22E)-ergosta-7, 9 (11), 22-triene-3, 5, 6, 14-tetrol [Compound 7]						156 ± 8.9	169 ± 11.1			3.806		188 ± 15.3	> 500
